As a reminder, the EC50 is the concentration at which the effect is half-maximal.

The test system of this experiment is S. cerevisiae Yfh1-off respiration, WST-1 reduction, 72 h. As to the kind of experiment: enhancers of respiration in Yfh1-depleted yeast, dose response, Friedreich's ataxia, plus single-dose screen (AID 1465).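 Also: activators that raise dye reduction in frataxin-depleted yeast.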

On to `Cc1ccc(NS(=O)(=O)c2cc([N+](=O)[O-])ccc2NNC(=S)Nc2cccc(Cl)c2)c(C)c1`, for which the EC50 was 30.8 µM.
For `c1ccc(-c2ccc(SCc3cccnc3)nn2)nc1` the value was 42.5 µM; for `O=C(C1=C(c2ccccc2)C(=O)c2ccccc2C1=O)c1ccccc1`, 35.6 µM.
With `CCC(=O)NC(c1cccs1)c1cc(Cl)c2cccnc2c1O` (stereo not given), the EC50 is 65.9 µM.
Consider `O=C1c2ccccc2NC(c2ccc(-c3cccc(Cl)c3)o2)N1O` (stereo not given), for which the concentration giving a half-maximal response (EC50) is 80 µM.
Turning to `COc1ccc(Cn2c(O)c(/C=N/NC(=O)c3cccnc3)c3ccccc3c2=O)cc1`, the EC50 is 75.4 µM.
Next, `CCN1CCS/C1=C\C=C\C1=[N+](CC)CCS1`: 53.7 µM; `COc1ccccc1C(=O)NNC1=C(C(=O)C(F)(F)F)CCC1`: 25.3 µM; `O=[N+]([O-])c1cccc(/C=N/Nc2nc(NCc3ccccc3)nc(N3CCOCC3)n2)c1O`: 50.9 µM.
For `O=C(COc1ccc(Cl)cc1Cl)NNC(=S)Nc1ccc(F)cc1` the value was 83.3 µM; for `CCC(=O)NC(c1cccs1)c1cc([N+](=O)[O-])c2cccnc2c1O` (stereo not given), 34.4 µM.
Next, `O=C(O)c1cccc(NC(=S)N/N=C/c2ccccn2)c1`: 78.1 µM; `COc1cc([N+](=O)[O-])cc(/C=N/NC(=O)c2cc(-c3ccccc3)nc3ccccc23)c1O`: 35.2 µM.
As for `CCOC(=O)/C(C#N)=C\C=C1C=CN(C)C=C1`, the EC50 is 96 µM.
For `CCC(=O)NC(c1ccc(OC)cc1)c1cc(Cl)c2cccnc2c1O` (stereo not given) the value was 38.2 µM; for `O=C1C=C(NCc2ccccc2)c2ccccc2C1=O`, 36.1 µM.
Next, `CCN1/C(=C\C=C(C(C)=O)C(C)=O)Sc2ccccc21`: 87.4 µM; `Cc1ccccc1C(=O)/C(C#N)=N/Nc1c(C)n(C)n(-c2ccccc2)c1=O`: 60 µM.
Next, `CC[n+]1c(C=C2C=C(C)OC(C)=C2)sc2ccccc21`: 83.8 µM; `CCC(=O)NC(c1ccc(OC)c(OC)c1)c1cc(Cl)c2cccnc2c1O` (stereo not given): 29.2 µM; `CC1=CC(=O)c2ccccc2C1=O`: 45.7 µM.
Turning to `O=C1C(Cl)=C(Nc2ccccc2)C(=O)c2ccccc21`, the EC50 is 67.6 µM.
For `COc1ccccc1N1CCN(Cc2ccc(O)c3ncccc23)CC1` the value was 43 µM; for `CCCCC(=O)NC(c1cccs1)c1cc(Cl)c2cccnc2c1O` (stereo not given), 8.49 µM.
For `CCCCCC(=O)NNC(=S)NC(C)=O` the value was 34.6 µM.
On to `COc1ccc(C2=NN(c3nc4ccccc4s3)C(=O)C2)cc1`, for which the half-maximal effective concentration (EC50) was 59.4 µM.
Next, `Cc1cc(C(=O)N/N=C/c2ccc(O)c(O)c2O)c(C)n1-c1ccccc1`: 46 µM; `Cc1c(N/N=C(\C#N)C(=O)c2ccccc2)c(=O)n(-c2ccccc2)n1C`: 52 µM; `CC(=O)NC(c1cccs1)c1cc([N+](=O)[O-])c2cccnc2c1O` (stereo not given): 25.4 µM.
Next, `O=C(NNC1=C(C(=O)C(F)(F)F)CCC1)c1ccc(Br)cc1`: 59.8 µM.
Next, `CCN1CCS/C1=C/C=C/C1=[N+](CC)CCS1`: 56.3 µM; `O=[N+]([O-])c1ccc(Sc2cccc[n+]2[O-])c2nonc12`: 16.8 µM.
For the compound `NC(=S)n1[nH]c(-c2ccc([N+](=O)[O-])cc2)c(N=Nc2cccc([N+](=O)[O-])c2)c1=O`, the EC50 was 44.1 µM.
For `CCCCC(=O)NC(c1ccccc1OC)c1ccc2cccnc2c1O` (stereo not given) the value was 36.5 µM; for `COC(=O)c1ccc(=O)c2nc3/c(=C/O)c(O)cc(=O)c3[nH]c12`, 21.9 µM.
Next, `Cc1oc2c(c1C(=O)c1ccccc1)C(=O)C(=O)c1ccccc1-2`: 35.2 µM; `COc1cc(/C=N/NC(=O)c2cncc(Br)c2)cc([N+](=O)[O-])c1O`: 58.1 µM; `CN1/C(=C\C=C2C(=O)NC(=O)NC2=O)C(C)(C)c2ccccc21`: 96.8 µM.
On to `CCOC(=O)c1c(C)oc2c1c(CN1CCN(CCO)CC1)c(O)c1ccccc12`, for which the 50% effective concentration (EC50) is 85 µM.
Next, `O=C(Cn1nc(Cl)nc1Cl)c1cc2ccccc2oc1=O`: 72.6 µM.
Next, `Cc1coc2c1C(=O)C(=O)c1c-2ccc2c(C)cccc12`: 78.8 µM; `CC1=C(C)C(=O)C(CCCCC#CCCCC#CCO)=C(C)C1=O`: 94.8 µM; `CC1CC(=O)c2c(cc3c(-c4c(O)cc(O)c5c(O)c6c(cc45)OC(C)CC6=O)c(O)cc(O)c3c2O)O1` (stereo not given): 75 µM.
Next, `CCC(C(=O)O)N1C(=O)/C(=C/c2cccn2C)SC1=S` (stereo not given): 96.7 µM; `O=C(N/N=C/c1c(O)n(Cc2ccccc2)c(=O)c2ccccc12)c1cccnc1`: 71.9 µM.
Regarding `CCCC(=O)NC(c1cccs1)c1cc([N+](=O)[O-])c2cccnc2c1O` (stereo not given), the EC50 is 20.9 µM.
Next, `O=c1cc(-c2ccccc2)[nH]n1-c1nc2ccccc2s1`: 49.1 µM; `CCOC(=O)C1=C(Cc2ccc(F)cc2)C(=O)c2ccccc2C1=O`: 36 µM; `O=C(O)c1cccc2nc3ccccc3nc12`: 47.6 µM.
Regarding `CC1=C(C)C(=O)C(N2CCOCC2)=CC1=O`, the EC50 was 14.3 µM.
Next, `CCCC(=O)NC(c1ccco1)c1cc([N+](=O)[O-])c2cccnc2c1O` (stereo not given): 55.2 µM.
With `Cn1cccc1/C=C1\SC(=S)N(CC(=O)O)C1=O`, the EC50 is 92.2 µM.
For `O=C1NC(=O)C(=Cc2ccc(N3CCOCC3)o2)C(=O)N1`, the EC50 was 96.6 µM.
For `CCN(CC)c1ccc(/C=N/NC(=O)c2cccc(S(=O)(=O)Nc3ccccc3OC)c2)c(O)c1`, the EC50 was 75.4 µM.
Next, `CCC(=O)NC(c1ccc(C)cc1)c1cc([N+](=O)[O-])c2cccnc2c1O` (stereo not given): 24.7 µM.
Next, `Oc1ccc(CN2CCC(Cc3ccccc3)CC2)c2cccnc12`: 96.9 µM; `CC1=CC(=Cc2sc3ccccc3[n+]2C)C=C(C)O1`: 93.7 µM; `Cc1c(N/N=C(\C#N)C(=O)c2ccc(Cl)cc2)c(=O)n(-c2ccccc2)n1C`: 21.5 µM.
For `O=C(CCc1ccccc1)NC(c1cccs1)c1cc(Cl)c2cccnc2c1O` (stereo not given) the value was 7.44 µM.
For `CC(=O)NC(c1ccc(C)cc1)c1cc([N+](=O)[O-])c2cccnc2c1O` (stereo not given), the EC50 was 25 µM.

The values above are taken from PubChem BioAssay AID1465 (SRMLSC, 2008).
